Assay results as given in ChEMBL document CHEMBL1201862, “PubChem BioAssay data set” (2004).
Calls of active or inactive are those of the source. Cut-off read from the data, not from the text of the source, for most assays here: actives have a measured IC50 and inactives only a lower limit.

What was measured:
[1] = biological target: Eukaryotic translation initiation factor 4H (Homo sapiens, UniProt Q15056); experiment: eIF4H inhibition in translation initiation, SAR follow-up (AID 435011); type: functional
[2] = biological target: Polyadenylate-binding protein 1 (Homo sapiens, UniProt P11940); experiment: PABP inhibition in translation initiation, SAR follow-up (AID 435018); type: functional
Chain of Polyadenylate-binding protein 1 (P11940 whole entry): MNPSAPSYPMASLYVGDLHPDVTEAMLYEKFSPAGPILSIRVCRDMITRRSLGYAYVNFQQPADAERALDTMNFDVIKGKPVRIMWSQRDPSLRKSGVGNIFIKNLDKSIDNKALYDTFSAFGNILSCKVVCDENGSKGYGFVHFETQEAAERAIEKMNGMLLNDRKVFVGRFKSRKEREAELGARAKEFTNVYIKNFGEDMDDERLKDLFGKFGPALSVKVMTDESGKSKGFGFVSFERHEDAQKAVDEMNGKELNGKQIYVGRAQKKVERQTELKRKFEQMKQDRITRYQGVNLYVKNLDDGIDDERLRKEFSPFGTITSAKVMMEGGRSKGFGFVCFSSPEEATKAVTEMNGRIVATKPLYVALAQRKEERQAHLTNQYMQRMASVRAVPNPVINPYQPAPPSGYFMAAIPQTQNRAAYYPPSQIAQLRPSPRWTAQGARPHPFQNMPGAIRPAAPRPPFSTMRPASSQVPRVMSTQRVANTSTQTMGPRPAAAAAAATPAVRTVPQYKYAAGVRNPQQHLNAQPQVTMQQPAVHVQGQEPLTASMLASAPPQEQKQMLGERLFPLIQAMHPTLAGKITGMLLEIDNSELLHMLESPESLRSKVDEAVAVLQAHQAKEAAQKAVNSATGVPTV

[3] = biological target: T1, Insulin-degrading enzyme (Homo sapiens, UniProt P14735); experiment: Dose Response: Fluorescence polarization-based cell-based high throughput dose response assay for inhibitors of insulin-degrading enzyme (IDE). [Related pubchem assays: 434962 (Primary screen (IDE inhibitors in singlicate)), 449730 (Counterscreen (Cytotoxicity in triplicate)), 435028 (Confirmation (IDE inhibitors in triplicate)), 434984 (Summary …; type: functional
T1 sequence (P14735 whole entry): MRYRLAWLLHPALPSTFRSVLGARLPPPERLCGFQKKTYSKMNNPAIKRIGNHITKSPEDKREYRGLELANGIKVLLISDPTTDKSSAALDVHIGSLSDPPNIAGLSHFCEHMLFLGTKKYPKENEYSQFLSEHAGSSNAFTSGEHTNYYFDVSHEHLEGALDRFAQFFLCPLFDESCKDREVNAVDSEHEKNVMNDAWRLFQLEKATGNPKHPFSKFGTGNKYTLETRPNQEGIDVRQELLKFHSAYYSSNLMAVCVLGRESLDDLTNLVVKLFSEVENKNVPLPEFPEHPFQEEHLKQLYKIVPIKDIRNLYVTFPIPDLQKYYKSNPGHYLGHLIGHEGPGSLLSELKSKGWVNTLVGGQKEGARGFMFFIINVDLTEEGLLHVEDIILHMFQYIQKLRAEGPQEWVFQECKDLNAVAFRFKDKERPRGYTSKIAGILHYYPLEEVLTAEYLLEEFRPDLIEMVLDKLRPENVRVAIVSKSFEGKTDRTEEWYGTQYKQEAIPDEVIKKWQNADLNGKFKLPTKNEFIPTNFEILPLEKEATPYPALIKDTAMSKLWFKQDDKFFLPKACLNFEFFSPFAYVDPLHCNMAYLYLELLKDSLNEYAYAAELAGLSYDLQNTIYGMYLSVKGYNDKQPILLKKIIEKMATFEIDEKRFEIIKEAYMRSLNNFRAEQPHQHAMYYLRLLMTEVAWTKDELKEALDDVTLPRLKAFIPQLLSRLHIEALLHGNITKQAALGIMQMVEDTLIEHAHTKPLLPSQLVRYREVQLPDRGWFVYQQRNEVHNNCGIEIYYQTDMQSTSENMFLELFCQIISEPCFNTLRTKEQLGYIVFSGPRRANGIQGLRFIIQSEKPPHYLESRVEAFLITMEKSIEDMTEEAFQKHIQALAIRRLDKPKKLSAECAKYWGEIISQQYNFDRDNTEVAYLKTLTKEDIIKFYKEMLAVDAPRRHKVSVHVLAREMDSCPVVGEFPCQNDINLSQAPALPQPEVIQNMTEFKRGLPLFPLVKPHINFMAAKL

[4] = Counterscreen for IDE inhibitors: Luminescence-based cell-based high throughput dose response assay to identify compounds that are cytotoxic to HEK cells. [Related pubchem assays: 434962 (Primary screen (IDE inhibitors in singlicate)), 449730 (Counterscreen (Cytotoxicity in triplicate)), 435028 (Confirmation (IDE inhibitors in triplicate)) …; type: functional; conditions: HEK293
[5] = biological target: Tumor necrosis factor (Homo sapiens, UniProt P01375); experiment: TNFa-triggered NF-kB activation inhibitors, SAR follow-up, cell-based, revised (AID 2337); type: functional
Chain of Tumor necrosis factor (P01375 whole entry, the tested form may be a part): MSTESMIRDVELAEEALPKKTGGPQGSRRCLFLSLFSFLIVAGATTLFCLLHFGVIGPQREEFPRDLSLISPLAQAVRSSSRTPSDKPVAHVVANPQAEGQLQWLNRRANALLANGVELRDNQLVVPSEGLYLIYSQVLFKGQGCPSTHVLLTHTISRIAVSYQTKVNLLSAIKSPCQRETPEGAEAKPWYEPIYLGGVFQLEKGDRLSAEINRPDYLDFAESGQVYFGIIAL

[6] = biological target: T2, Nucleotide-binding oligomerization domain-containing protein 1 (Homo sapiens, UniProt Q9Y239); experiment: NOD1 signaling inhibitors, SAR follow-up, revised (AID 2333); type: functional
T2 sequence (Q9Y239 whole entry): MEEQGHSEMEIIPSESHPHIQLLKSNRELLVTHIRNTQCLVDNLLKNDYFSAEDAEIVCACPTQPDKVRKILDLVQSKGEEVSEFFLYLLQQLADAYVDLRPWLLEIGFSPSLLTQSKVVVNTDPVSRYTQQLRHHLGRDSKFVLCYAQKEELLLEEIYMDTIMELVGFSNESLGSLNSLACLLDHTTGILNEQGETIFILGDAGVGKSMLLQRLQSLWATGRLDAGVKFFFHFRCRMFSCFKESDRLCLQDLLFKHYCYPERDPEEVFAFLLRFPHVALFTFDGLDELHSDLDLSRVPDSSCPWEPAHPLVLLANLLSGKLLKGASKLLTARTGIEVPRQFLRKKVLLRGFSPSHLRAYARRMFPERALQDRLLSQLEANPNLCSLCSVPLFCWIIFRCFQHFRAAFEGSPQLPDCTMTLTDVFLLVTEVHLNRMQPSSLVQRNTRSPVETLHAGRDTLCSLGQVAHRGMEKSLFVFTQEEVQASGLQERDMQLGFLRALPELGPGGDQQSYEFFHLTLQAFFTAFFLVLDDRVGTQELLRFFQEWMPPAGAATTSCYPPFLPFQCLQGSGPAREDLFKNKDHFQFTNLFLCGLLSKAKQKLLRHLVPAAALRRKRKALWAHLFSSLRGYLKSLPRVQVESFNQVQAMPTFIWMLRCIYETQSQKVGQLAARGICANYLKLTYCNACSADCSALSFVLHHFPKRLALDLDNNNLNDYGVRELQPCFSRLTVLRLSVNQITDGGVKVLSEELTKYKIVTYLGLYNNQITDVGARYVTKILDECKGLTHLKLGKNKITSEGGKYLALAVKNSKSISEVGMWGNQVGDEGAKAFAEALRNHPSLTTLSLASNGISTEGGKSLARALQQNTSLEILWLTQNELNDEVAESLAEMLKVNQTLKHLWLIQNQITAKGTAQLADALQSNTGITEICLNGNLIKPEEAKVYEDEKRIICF

[7] = biological target: Nucleotide-binding oligomerization domain-containing protein 2 (Homo sapiens, UniProt Q9HC29); experiment: PubChem AID 2334; type: functional
Chain of Nucleotide-binding oligomerization domain-containing protein 2 (Q9HC29 whole entry, the tested form may be a part): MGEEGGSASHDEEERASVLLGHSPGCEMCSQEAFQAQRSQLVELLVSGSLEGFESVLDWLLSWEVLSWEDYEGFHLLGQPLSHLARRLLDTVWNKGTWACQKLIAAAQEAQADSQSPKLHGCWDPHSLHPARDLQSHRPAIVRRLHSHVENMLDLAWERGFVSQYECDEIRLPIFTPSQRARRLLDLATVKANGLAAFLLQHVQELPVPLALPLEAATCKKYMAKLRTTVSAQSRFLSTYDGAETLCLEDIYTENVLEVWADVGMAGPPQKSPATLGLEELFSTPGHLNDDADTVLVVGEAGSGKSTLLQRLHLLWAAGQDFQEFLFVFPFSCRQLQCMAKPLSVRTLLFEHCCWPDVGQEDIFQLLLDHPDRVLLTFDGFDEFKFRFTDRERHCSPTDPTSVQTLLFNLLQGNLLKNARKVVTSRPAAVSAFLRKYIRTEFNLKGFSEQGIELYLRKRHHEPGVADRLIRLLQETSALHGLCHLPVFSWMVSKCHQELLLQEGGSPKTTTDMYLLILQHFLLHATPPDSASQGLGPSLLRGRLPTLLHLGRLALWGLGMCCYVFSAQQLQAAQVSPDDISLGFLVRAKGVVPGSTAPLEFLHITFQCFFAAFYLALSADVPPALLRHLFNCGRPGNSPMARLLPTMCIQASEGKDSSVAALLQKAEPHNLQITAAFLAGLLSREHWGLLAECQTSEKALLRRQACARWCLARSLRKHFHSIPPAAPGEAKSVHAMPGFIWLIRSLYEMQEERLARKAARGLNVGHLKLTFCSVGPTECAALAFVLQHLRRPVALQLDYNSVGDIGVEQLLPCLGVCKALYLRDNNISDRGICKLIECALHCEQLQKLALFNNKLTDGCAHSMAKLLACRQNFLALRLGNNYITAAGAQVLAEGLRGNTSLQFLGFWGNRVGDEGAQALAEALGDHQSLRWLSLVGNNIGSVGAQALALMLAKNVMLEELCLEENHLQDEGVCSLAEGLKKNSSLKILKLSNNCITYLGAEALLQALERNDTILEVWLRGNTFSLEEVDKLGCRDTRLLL

[8] = tested on: HEK293; experiment: cells; conditions: Homo sapiens;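 note: cells exposed to compound for 14 hours overnight before viability readout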
[9] = biological target: T3, RNA-binding protein pos-1 (Caenorhabditis elegans, UniProt G5EF15); experiment: inhibitors of POS-1/mex-3 RNA binding, dose response, biochemical, fluorescence polarization (AID 1964);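 note: purified POS-1 fused to maltose binding protein made in E. coli; potency of compounds blocking POS-1 binding to fluorescent RNA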
T3 sequence (G5EF15 whole entry): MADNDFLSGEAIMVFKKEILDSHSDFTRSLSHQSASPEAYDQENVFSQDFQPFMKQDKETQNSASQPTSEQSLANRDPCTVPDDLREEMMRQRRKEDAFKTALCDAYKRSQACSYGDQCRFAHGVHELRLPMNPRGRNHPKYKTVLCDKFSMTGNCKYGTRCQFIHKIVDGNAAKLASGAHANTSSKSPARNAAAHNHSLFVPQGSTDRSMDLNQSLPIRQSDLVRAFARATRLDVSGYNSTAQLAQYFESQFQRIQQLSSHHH

[10] = biological target: T4, Zinc finger protein mex-5 (Caenorhabditis elegans, UniProt Q9XUB2); experiment: MEX-5/TCR-2 RNA interaction inhibitors, dose response, biochemical, C. elegans, fluorescence polarization (AID 1960)
T4 sequence (Q9XUB2 whole entry): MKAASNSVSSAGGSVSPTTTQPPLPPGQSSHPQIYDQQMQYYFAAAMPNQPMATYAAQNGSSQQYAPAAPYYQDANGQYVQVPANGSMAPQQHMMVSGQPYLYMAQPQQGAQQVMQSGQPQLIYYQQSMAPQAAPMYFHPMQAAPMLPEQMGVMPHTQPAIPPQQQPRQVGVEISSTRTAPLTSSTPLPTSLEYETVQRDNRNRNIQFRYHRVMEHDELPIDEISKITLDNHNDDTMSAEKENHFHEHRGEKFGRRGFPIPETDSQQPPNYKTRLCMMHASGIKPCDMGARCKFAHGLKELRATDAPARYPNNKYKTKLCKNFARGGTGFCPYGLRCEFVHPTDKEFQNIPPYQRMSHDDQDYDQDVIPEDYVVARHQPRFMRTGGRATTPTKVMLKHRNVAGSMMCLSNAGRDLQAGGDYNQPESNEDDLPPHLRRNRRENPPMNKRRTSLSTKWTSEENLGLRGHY

| Structure (SMILES) | IC50 [1] | IC50 [2] | IC50 [3] | IC50 [4] | other results |
| --- | --- | --- | --- | --- | --- |
| O=C(Nc1ccc(F)cc1)C1CCCN1C(=O)Oc1ccccc1 (centres undefined) | > 100 µM (inactive) | > 100 µM (inactive) | – | – | – |
| Cc1cccc(C(=O)Nc2ccnc(-c3ccncc3)n2)c1 | – | – | 7.39 µM (active) | 22.9 µM (not active) | – |
| COC(=O)c1c(NC(=O)c2cccc(F)c2)sc2c1CCC(C)C2 (centres undefined) | – | – | – | – | IC50 [5]: > 20 µM (inactive); IC50 [6]: > 20 µM (inactive); IC50 [7]: > 20 µM (inactive); IC50 [8]: > 20 µM (inactive) |
| O=C1CCC/C(=N/NC(=O)c2sc3ccccc3c2Cl)C1 | – | – | 26.3 µM (not active) | > 55.7 µM (not active) | EC50 [9]: 22 µM (active); EC50 [10]: 20.5 µM (active) |
| CN(C(=O)C1CCN(C(=O)c2cccs2)CC1)c1ccccc1 | > 100 µM (inactive) | > 100 µM (inactive) | – | – | – |
